Legend:
Format in all cases: biochemical
PoptoCSE2 = molecular target: T1, PoptoCSE2 (Populus tomentosa, UniProt A0A0S1VWZ0); assay: HPLC-MS, appearance of caffeic acid; settings: 100 uM substrate, 100 mM sodium phosphate pH 7.5, 0.5 mM DTT, 30 C; substrate made enzymatically with PoptoHCT6
T1 construct: gene CSE2; full-length CDS cloned from cambial zone cDNA into pET28a, His-tagged, E. coli BL21(DE3), Ni-NTA
T1 sequence (A0A0S1VWZ0 1-326): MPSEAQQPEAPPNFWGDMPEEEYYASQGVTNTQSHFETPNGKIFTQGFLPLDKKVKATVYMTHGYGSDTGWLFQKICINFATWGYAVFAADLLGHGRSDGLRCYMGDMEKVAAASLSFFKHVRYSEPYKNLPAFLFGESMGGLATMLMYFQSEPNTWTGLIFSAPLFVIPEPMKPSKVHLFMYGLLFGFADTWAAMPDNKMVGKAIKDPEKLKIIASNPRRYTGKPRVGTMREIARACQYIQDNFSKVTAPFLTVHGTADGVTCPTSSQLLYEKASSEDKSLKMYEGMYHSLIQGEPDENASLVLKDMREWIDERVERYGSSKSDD

PoptoCSE1 = molecular target: T2, PoptoCSE1 (Populus tomentosa, UniProt A0A0S1VWX4); assay: HPLC-MS, appearance of caffeic acid; settings: 100 uM substrate, 100 mM sodium phosphate pH 7.5, 0.5 mM DTT, 30 C; substrate made enzymatically with PoptoHCT6
T2 construct: gene CSE1; full-length CDS cloned from cambial zone cDNA into pET28a, His-tagged, E. coli BL21(DE3), Ni-NTA
T2 sequence (A0A0S1VWX4 1-326): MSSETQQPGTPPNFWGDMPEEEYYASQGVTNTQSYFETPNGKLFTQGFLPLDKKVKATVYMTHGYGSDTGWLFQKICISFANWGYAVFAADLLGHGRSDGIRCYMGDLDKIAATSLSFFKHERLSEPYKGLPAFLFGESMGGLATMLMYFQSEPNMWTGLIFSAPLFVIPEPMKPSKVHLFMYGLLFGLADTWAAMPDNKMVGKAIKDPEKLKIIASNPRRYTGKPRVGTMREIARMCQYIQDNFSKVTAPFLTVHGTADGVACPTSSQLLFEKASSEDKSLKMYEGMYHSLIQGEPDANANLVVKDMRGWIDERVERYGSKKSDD

PoptoHCT6 = molecular target: T3, PoptoHCT6 (Populus tomentosa, UniProt A0A0S1VWY1); assay: preparative enzymatic synthesis of caffeoyl shikimate
T3 construct: gene HCT6; cloned from cambial zone cDNA into pET28a, His-tagged, E. coli BL21(DE3), Ni-NTA
T3 sequence (A0A0S1VWY1 1-431): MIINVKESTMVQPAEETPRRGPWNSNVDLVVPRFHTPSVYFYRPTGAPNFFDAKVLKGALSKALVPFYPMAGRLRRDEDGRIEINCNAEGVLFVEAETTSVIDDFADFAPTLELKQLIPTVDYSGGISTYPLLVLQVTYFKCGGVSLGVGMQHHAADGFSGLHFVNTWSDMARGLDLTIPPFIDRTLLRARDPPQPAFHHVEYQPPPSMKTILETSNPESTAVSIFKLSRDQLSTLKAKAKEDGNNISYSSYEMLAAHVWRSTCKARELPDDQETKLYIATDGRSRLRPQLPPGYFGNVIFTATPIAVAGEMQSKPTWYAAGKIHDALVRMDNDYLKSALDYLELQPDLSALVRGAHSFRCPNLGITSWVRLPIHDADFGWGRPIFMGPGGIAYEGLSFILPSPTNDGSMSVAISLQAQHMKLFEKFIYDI

O=C(/C=C/c1ccc(O)c(O)c1)O[C@@H]1CC(C(=O)O)=C[C@@H](O)[C@H]1O [caffeoyl shikimate]
HPLC-MS, appearance of caffeic acid (PoptoCSE2): PoptoCSE1 and PoptoCSE2 have detectable activity against caffeoyl shikimate
HPLC-MS, appearance of caffeic acid (PoptoCSE1): PoptoCSE1 and PoptoCSE2 have detectable activity against caffeoyl shikimate

CC(C)(COP(=O)(O)OP(=O)(O)OC[C@H]1O[C@@H](n2cnc3c(N)ncnc32)[C@H](O)[C@@H]1OP(=O)(O)O)[C@@H](O)C(=O)NCCC(=O)NCCSC(=O)/C=C/c1ccc(O)c(O)c1 [caffeoyl-CoA]
preparative enzymatic synthesis of caffeoyl shikimate (PoptoHCT6; co-substrate shikimic acid): caffeoyl shikimate using enzymatic reaction catalyzed by purified recombinant PoptoHCT6 with caffeoyl-CoA and shikimic acid

O=C(O)C1=C[C@@H](O)[C@@H](O)[C@H](O)C1 [shikimic acid]
preparative enzymatic synthesis of caffeoyl shikimate (PoptoHCT6; co-substrate caffeoyl-CoA): caffeoyl shikimate using enzymatic reaction catalyzed by purified recombinant PoptoHCT6 with caffeoyl-CoA and shikimic acid

From PMC8704367, “Systematic Analysis and Biochemical Characterization of the Caffeoyl Shikimate Esterase Gene Family in Poplar” (International Journal of Molecular Sciences, 2021)
